Measured values as given in paper PMC7689791 (Journal of Clinical Pharmacology, 2020).
“And” between values parts separate entries of the source, which are not always exact repeats. Equal entries are not always repeated. Where two headings read alike, the source gives them in different places.

Legend:
[1] = Observed incidence of treatment-emergent adverse events in clinical studies
[2] = Model-predicted / simulated lemborexant exposure across covariates; design: species or system human
[3] = cited from earlier work
[4] = Logistic regression exposure-response analysis of TEAE probability; details: for Headache TEAE probability / Influenza TEAE probability / Nasopharyngitis TEAE probability / Somnolence TEAE probability / Upper Respiratory Tract Infection TEAE probability / Urinary Tract Infection TEAE probability: person
[5] = coadministration with famotidine; cited from earlier work
[6] = cited from earlier work; remark: listed apart in the source
[7] = study 201, 15-day treatment, cited from earlier work
[8] = Population PK final model; format: in vivo, human
CYP3A = details: stand-alone DDI studies and PBPK modeling; cited from earlier work
[9] = studies 202, 303, 304, 5 to 15 mg
[10] = oral [14C]lemborexant, healthy subjects, ref study E2006-A001-007, NCT02046213
[11] = 5 mg, 5th quantile, Cav,ss 6.30 ng/mL
[12] = 5 mg, 25th quantile, Cav,ss 7.90 ng/mL
[13] = 5 mg, 50th quantile, Cav,ss 10.00 ng/mL
[14] = 5 mg, 75th quantile, Cav,ss 14.00 ng/mL
[15] = 5 mg, 95th quantile, Cav,ss 19.00 ng/mL
[16] = 10 mg, 5th quantile, Cav,ss 12.00 ng/mL
[17] = 10 mg, 25th quantile, Cav,ss 17.00 ng/mL
[18] = 10 mg, 50th quantile, Cav,ss 21.00 ng/mL
[19] = 10 mg, 75th quantile, Cav,ss 27.00 ng/mL
[20] = 10 mg, 95th quantile, Cav,ss 37.00 ng/mL

Cc1ncc(OC[C@@]2(c3cccc(F)c3)C[C@H]2C(=O)Nc2ccc(F)cn2)c(C)n1 [Lemborexant]
Somnolence rate, treatment ([1]; 9-month SUNRISE 2 study): 11% | Nasopharyngitis frequency, active treatment [1, 9]: 8.6% | Upper respiratory tract infection frequency, active treatment [1, 9]: 3.2% | Urinary tract infection frequency, active treatment [1, 9]: 2.5% | Somnolence rate, treatment ([1]; study 202): 6% | Higher exposure for high ALP ([2]; ALP 150 U/L, relative to population average): 9% | Lower exposure for underweight ([2]; BMI 15 kg/m^2, relative to typical subject with normal BMI): 25% | Higher exposure for class 1 obesity ([2]; BMI 32 kg/m^2, relative to typical subject with normal BMI): 11% | Exposure elevation in high ALP subjects ([2]; high ALP): 8% | Exposure elevation in obese subjects ([2]; high BMI): up to 20% | Higher CL/F for ALP at the upper range of normal over the typical subject ([2]; model prediction): 7% | Higher exposure in the elderly ([2]; model prediction, relative to population average / adult insomnia population): 26% | Fraction of the dose bioavailable [3, 10]: at least 87% | Unchanged lemborexant in feces [3, 10]: 13.0% | Unchanged lemborexant in urine [3, 10]: not detected | Administered dose recovered as unchanged drug in urine ([3]; single ascending-dose study, ref study 001, NCT01463098): < 1% | Headache TEAE probability [4, 11]: 11.0 (7.8‐14.0) | Influenza TEAE probability [4, 11]: 3.8 (2.3‐6.2) | Nasopharyngitis TEAE probability [4, 11]: 10.0 (7.5‐14.0) | Somnolence TEAE probability [4, 11]: 7.2 (5.3‐9.7) | Upper Respiratory Tract Infection TEAE probability [4, 11]: 4.7 (2.9‐7.3) | Urinary Tract Infection TEAE probability [4, 11]: 2.0 (1.2‐3.5) | Headache TEAE probability [4, 12]: 9.8 (7.6‐13.0) | Influenza TEAE probability [4, 12]: 3.6 (2.3‐5.5) | Nasopharyngitis TEAE probability [4, 12]: 9.5 (7.3‐12.0) | Somnolence TEAE probability [4, 12]: 7.4 (5.7‐9.7) | Upper Respiratory Tract Infection TEAE probability [4, 12]: 4.4 (2.9‐6.4) | Urinary Tract Infection TEAE probability [4, 12]: 2.1 (1.3‐3.5) | Headache TEAE probability [4, 13]: 9.2 (7.3‐11.0) | Influenza TEAE probability [4, 13]: 3.4 (2.3‐4.9) | Nasopharyngitis TEAE probability [4, 13]: 8.9 (7.1‐11.0) | Somnolence TEAE probability [4, 13]: 7.7 (6.1‐9.7) | Upper Respiratory Tract Infection TEAE probability [4, 13]: 4.1 (2.9‐5.7) | Urinary Tract Infection TEAE probability [4, 13]: 2.3 (1.4‐3.5) | Headache TEAE probability [4, 14]: 8.3 (6.8‐10.0) | Influenza TEAE probability [4, 14]: 3.1 (2.2‐4.3) | Nasopharyngitis TEAE probability [4, 14]: 8.1 (6.6‐9.8) | Somnolence TEAE probability [4, 14]: 8.1 (6.6‐9.9) | Upper Respiratory Tract Infection TEAE probability [4, 14]: 3.6 (2.7‐4.9) | Urinary Tract Infection TEAE probability [4, 14]: 2.5 (1.7‐3.6) | Headache TEAE probability [4, 15]: 6.8 (5.3‐8.6) | Influenza TEAE probability [4, 15]: 2.6 (1.8‐3.9) | Nasopharyngitis TEAE probability [4, 15]: 6.7 (5.2‐8.6) | Somnolence TEAE probability [4, 15]: 8.9 (7.3‐11.0) | Upper Respiratory Tract Infection TEAE probability [4, 15]: 3.0 (2.0‐4.3) | Urinary Tract Infection TEAE probability [4, 15]: 2.9 (2.0‐4.1) | Headache TEAE probability [4, 16]: 9.2 (7.4‐12.0) | Influenza TEAE probability [4, 16]: 3.4 (2.3‐4.9) | Nasopharyngitis TEAE probability [4, 16]: 8.9 (7.1‐11.0) | Somnolence TEAE probability [4, 16]: 7.7 (6.0‐9.7) | Upper Respiratory Tract Infection TEAE probability [4, 16]: 4.1 (2.9‐5.7) | Urinary Tract Infection TEAE probability [4, 16]: 2.2 (1.4‐3.5) | Headache TEAE probability [4, 17]: 7.7 (6.3‐9.4) | Influenza TEAE probability [4, 17]: 2.9 (2.1‐4.1) | Nasopharyngitis TEAE probability [4, 17]: 7.6 (6.2‐9.3) | Somnolence TEAE probability [4, 17]: 8.4 (6.9‐10.0) | Upper Respiratory Tract Infection TEAE probability [4, 17]: 3.4 (2.5‐4.6) | Urinary Tract Infection TEAE probability [4, 17]: 2.6 (1.8‐3.7) | Headache TEAE probability [4, 18]: 6.8 (5.3‐8.6) | Influenza TEAE probability [4, 18]: 2.6 (1.8‐3.9) | Nasopharyngitis TEAE probability [4, 18]: 6.7 (5.2‐8.6) | Somnolence TEAE probability [4, 18]: 8.9 (7.3‐11.0) | Upper Respiratory Tract Infection TEAE probability [4, 18]: 3.0 (2.0‐4.3) | Urinary Tract Infection TEAE probability [4, 18]: 2.9 (2.0‐4.0) | Headache TEAE probability [4, 19]: 5.7 (4.0‐8.1) | Influenza TEAE probability [4, 19]: 2.3 (1.3‐4.0) | Nasopharyngitis TEAE probability [4, 19]: 5.8 (4.0‐8.1) | Somnolence TEAE probability [4, 19]: 9.6 (7.6‐12.0) | Upper Respiratory Tract Infection TEAE probability [4, 19]: 2.5 (1.5‐4.3) | Urinary Tract Infection TEAE probability [4, 19]: 3.3 (2.2‐4.9) | Headache TEAE probability [4, 20]: 3.9 (2.0‐7.4) | Influenza TEAE probability [4, 20]: 1.7 (0.6‐4.7) | Nasopharyngitis TEAE probability [4, 20]: 4.0 (2.1‐7.7) | Somnolence TEAE probability [4, 20]: 11.0 (7.5‐17.0) | Upper Respiratory Tract Infection TEAE probability [4, 20]: 1.7 (0.6‐4.6) | Urinary Tract Infection TEAE probability [4, 20]: 4.4 (2.2‐8.7) | Cav,ss as linear predictor of the probability of specific TEAEs (somnolence, nasopharyngitis, flu/influenza, urinary tract infection, upper respiratory tract infection, headache) ([4]; with and without adjustment for age): not a clinically meaningful linear predictor | Decrease in lemborexant Cmax [5]: 27% | Delay in the median tmax [5]: 30 min | Effect on lemborexant AUC0-t and AUC0-inf [5]: no significant effect | calculated logP [6]: 3.2 | Somnolence frequency ([7]; 1-mg group): 3.1% | Somnolence frequency ([7]; 25-mg group): 22.0% | Cav,ss ([8]; 5 mg, 5th quantile of Cav,ss): 6.30 ng/mL | Cav,ss ([8]; 5 mg, 25th quantile of Cav,ss): 7.90 ng/mL | Cav,ss ([8]; 5 mg, 50th quantile of Cav,ss): 10.00 ng/mL | Cav,ss ([8]; 5 mg, 75th quantile of Cav,ss): 14.00 ng/mL | Cav,ss ([8]; 5 mg, 95th quantile of Cav,ss): 19.00 ng/mL | Cav,ss ([8]; 10 mg, 5th quantile of Cav,ss): 12.00 ng/mL | Cav,ss ([8]; 10 mg, 25th quantile of Cav,ss): 17.00 ng/mL | Cav,ss ([8]; 10 mg, 50th quantile of Cav,ss): 21.00 ng/mL | Cav,ss ([8]; 10 mg, 75th quantile of Cav,ss): 27.00 ng/mL | Cav,ss ([8]; 10 mg, 95th quantile of Cav,ss): 37.00 ng/mL | Accumulation ratio ([8]; bedtime once-daily dosing): 1.9 | Effect size of age covariate on CL/F ([8]; elderly (>65 years old) versus adults, univariate forward addition): 126% | Oral clearance lower in the elderly ([8]; elderly (≥65 years)): 26% | CL/F, elderly (categorical covariate factor) ([8]; final model estimate): 0.739 | Interindividual variability CL/F ([8]; final model estimate): 48.1 %CV | Interindividual variability Q3/F ([8]; final model estimate): 56.8 %CV | Interindividual variability Q4/F ([8]; final model estimate): 46.5 %CV | Interindividual variability V2/F ([8]; final model estimate): 142 %CV | Interindividual variability V3/F ([8]; final model estimate): 82.0 %CV | Interindividual variability V4/F ([8]; final model estimate): 41.4 %CV | Q3/F ([8]; final model estimate): 32.1 L/h | Q4/F ([8]; final model estimate): 31.0 L/h | Residual variability, additive (TAD >3 h) ([8]; final model estimate): 0.0189 ng/mL | Residual variability, additive (TAD ≤3 h) ([8]; final model estimate): 2.62 ng/mL | Residual variability, proportional (TAD > 3 h) ([8]; final model estimate): 14.3 % CV | Residual variability, proportional (TAD ≤ 3 h) ([8]; final model estimate): 32.9 % CV | V2/F ([8]; final model estimate): 9.09 L | V3/F ([8]; final model estimate): 278 L | V4/F ([8]; final model estimate): 783 L | CL/F ([8]; final model estimate, typical subject): 23 L/h and 22.7 L/h | CL/F ([8]; final model, bootstrap median): 23.7 L/h | CL/F, elderly (categorical covariate factor) ([8]; final model, bootstrap median): 0.713 | Interindividual variability CL/F ([8]; final model, bootstrap median): 46.8 %CV | Interindividual variability Q3/F ([8]; final model, bootstrap median): 42.6 %CV | Interindividual variability Q4/F ([8]; final model, bootstrap median): 52.0 %CV | Interindividual variability V2/F ([8]; final model, bootstrap median): 131 %CV | Interindividual variability V3/F ([8]; final model, bootstrap median): 66.1 %CV | Interindividual variability V4/F ([8]; final model, bootstrap median): 38.3 %CV | Q3/F ([8]; final model, bootstrap median): 33.0 L/h | Q4/F ([8]; final model, bootstrap median): 30.1 L/h | Residual variability, additive (TAD >3 h) ([8]; final model, bootstrap median): 0.0203 ng/mL | Residual variability, additive (TAD ≤3 h) ([8]; final model, bootstrap median): 2.46 ng/mL | Residual variability, proportional (TAD > 3 h) ([8]; final model, bootstrap median): 14.3 % CV | Residual variability, proportional (TAD ≤ 3 h) ([8]; final model, bootstrap median): 33.2 % CV | V2/F ([8]; final model, bootstrap median): 11.4 L | V3/F ([8]; final model, bootstrap median): 289 L | V4/F ([8]; final model, bootstrap median): 779 L | ALAG1 ([8]; final model, fixed): 0.403 h | D1, capsule ([8]; final model, fixed): 0.467 h | D1, nighttime dosing (covariate factor) ([8]; final model, fixed): 2.33 | D1, tablet (covariate factor) ([8]; final model, fixed): 0.254 | F1, food (covariate factor) ([8]; final model, fixed): 1.21 | Interindividual variability D1 ([8]; final model, fixed): 167 %CV | Interindividual variability F1 ([8]; final model, fixed): 68.1 %CV | Interindividual variability Ka ([8]; final model, fixed): 43.8 %CV | Ka, capsule ([8]; final model, fixed): 0.532 h⁻¹ | Ka, food (covariate factor) ([8]; final model, fixed): 0.695 | Ka, tablet (covariate factor) ([8]; final model, fixed): 1.12 | Contribution of beta half-life to total dispositional AUC ([8]; from microrate constants): 0.2% | Contribution of gamma half-life to total dispositional AUC ([8]; from microrate constants): 0.4% | Fraction of alpha disposition phase of total disposition AUC ([8]; from microrate constants): 99.4% | Interaction with moderate and strong CYP3A inhibitors (CYP3A): clinically meaningful interaction
